Data set [1] can be described thus: Fraction unbound in Wistar Han rat skeletal muscle at 2 uM incubated for 6 hrs by equilibrium dialysis method. (In general: In equilibrium dialysis only unbound substance equilibrates across the membrane.)
Data set [2] in a line: Drug concentration in total heart in Wistar Han rat at 1 to 2 mg/kg, iv infused for 10 to 20 hrs by LC-MS/MS analysis. The following applies: in vivo.
Data set [3] can be described thus: Fraction unbound in Wistar Han rat brain at 2 uM incubated for 6 hrs by equilibrium dialysis method.
Data set [4] in a line: Drug concentration in total brain in Wistar Han rat at 1 to 2 mg/kg, iv infused for 10 to 20 hrs by LC-MS/MS analysis. As to conditions: in vivo.
Data set [5] can be described thus: Drug concentration in total skeletal muscle in Wistar Han rat at 1 to 2 mg/kg, iv infused for 10 to 20 hrs by LC-MS/MS analysis. As to conditions: in vivo.
Data set [6] is described as follows: Fraction unbound in Wistar Han rat plasma at 2 uM incubated for 6 hrs by equilibrium dialysis method.
Data set [7] can be described thus: Fraction unbound in Wistar Han rat white adipose tissue at 2 uM incubated for 6 hrs by equilibrium dialysis method.
A short description of data set [8]: Unbound tissue partition coefficient, ratio of drug level in heart to plasma in Wistar Han rat at 1 to 2 mg/kg, iv infused for 10 to 20 hrs by LC-MS/MS analysis. As to conditions: heart/plasma.
Data set [9] is described as follows: Unbound tissue partition coefficient, ratio of drug level in adipose to plasma in Wistar Han rat at 1 to 2 mg/kg, iv infused for 10 to 20 hrs by LC-MS/MS analysis. As to conditions: adipose/plasma.
Data set [10] can be described thus: Drug concentration in total liver in Wistar Han rat at 1 to 2 mg/kg, iv infused for 10 to 20 hrs by LC-MS/MS analysis. As to conditions: in vivo.
A short description of data set [11]: Fraction unbound in Wistar Han rat heart at 2 uM incubated for 6 hrs by equilibrium dialysis method.
Data set [12] can be described thus: Apparent permeability of the compound across dog RRCK cells by MDCK-LE assay.
Data set [13] is described as follows: Drug concentration in total white adipose tissue in Wistar Han rat at 1 to 2 mg/kg, iv infused for 10 to 20 hrs by LC-MS/MS analysis. The following applies: in vivo.
A short description of data set [14]: Total plasma concentration in Wistar Han rat at 1 to 2 mg/kg, iv infused for 10 to 20 hrs by LC-MS/MS analysis. The following applies: in vivo.
The nature of data set [15]: Unbound tissue partition coefficient, ratio of drug level in brain to plasma in Wistar Han rat at 1 to 2 mg/kg, iv infused for 10 to 20 hrs by LC-MS/MS analysis. The following applies: brain/plasma.
Data set [16] can be described thus: Fraction unbound in Wistar Han rat liver at 2 uM incubated for 6 hrs by equilibrium dialysis method.
Data set [17] is described as follows: Unbound tissue partition coefficient, ratio of drug level in liver to plasma in Wistar Han rat at 1 to 2 mg/kg, iv infused for 10 to 20 hrs by LC-MS/MS analysis. As to conditions: liver/plasma.
Data set [18] in a line: Unbound tissue partition coefficient, ratio of drug level in skeletal muscle to plasma in Wistar Han rat at 1 to 2 mg/kg, iv infused for 10 to 20 hrs by LC-MS/MS analysis. As to conditions: skeletal muscle/plasma.
Data set [19] in a line: Unbound tissue partition coefficient, ratio of drug level in brain to plasma in mouse administered as single dose. The data set is classed as ADME. As to conditions: read-out: K(p,uu,brain).

The structures appear in SMILES notation.

In the case of `CN(C)C(=O)C(CCN1CCC(O)(c2ccc(Cl)cc2)CC1)(c1ccccc1)c1ccccc1` [LOPERAMIDE], the fraction unbound (usually free concentration divided by total concentration) at 6 h, 2 µM in data set [1] came out at 0.0022; in data set [3], 0.00591; in data set [6], 0.0462; in [7] it was 0.00264; in data set [11], 0.00677; in data set [16], 0.000644. Further, the Ct was determined as 390 ng/mL in data set [2]; 1.3 ng/mL in [4]; 170 ng/mL in data set [5]; 590 ng/mL in data set [10]; 130 ng/mL in [13]. Moreover, the Kp uu is 0.79 in data set [8]; 0.1 in [9]; 0.002 in data set [15]; 0.11 in [17]; 0.11 in [18]; 0.059 in data set [19]. In addition, the Papp (as a rule, the rate of passage across a membrane or cell layer, normalised by area and donor concentration) in data set [12] is 2.7 ×10⁻⁶ cm/s. Further, the Cp in [14] was 74 ng/mL.
